Results as given in patent US20220332708A1 (Cytokinetics, Inc., priority 2021, published 2022).

These molecules were tested on Bovine cardiac myofibrils (assay: Dose-dependent myofibril ATPase modulation (calcium-buffered, pyruvate kinase and lactate dehydrogenase-coupled ATPase assay at pCa25)). Conditions: concentration at which ATPase activity was 1.4-fold higher than the bottom of the dose curve, mean of a minimum of two independent tests.
Format: biochemical
How it was run: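 Detergent-skinned bovine cardiac myofibrils (typically 0.25-1.0 mg/ml) in a pyruvate kinase/lactate dehydrogenase-coupled ATPase assay, 1 mM ATP, pH 6.80, free Ca2+ set by EGTA buffer to pCa25. ATP hydrolysis followed by A340; 4-parameter fit, AC1.4 as mean of at least two independent tests.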

First: Cc1[nH]c(S(=O)(=O)NC23COc4cc(F)c(Cl)cc4C2C3)cc1C(=O)N1CC(C#N)C1 (stereo not shown) [Compound 81, N-(6-chloro-5-fluoro-1,7b-dihydrocyclopropa[c]chromen-1a(2H)-yl)-4-(3-cyanoazetidine-1-carbonyl)-5-methyl-1H-pyrrole-2-sulfonamide]
Second: Cc1[nH]c(S(=O)(=O)N[C@@H]2Cc3cc(F)c(Cl)cc3[C@H]2O)cc1C(=O)N1CC(C)(C#N)C1 [Compound 89]
The AC1.4 of the first is 4.7-fold higher: 1.194 µM for the first, 0.2521 µM for the second.

Compared with `Cc1[nH]c(S(=O)(=O)N[C@@H]2Cc3cc(Cl)c(Cl)cc3[C@@]2(C)O)cc1C(=O)N1CC(C)(C#N)C1` [Compound 82, 4-(3-cyano-3-methylazetidine-1-carbonyl)-N-((1R,2R)-5,6-dichloro-1-hydroxy-1-methyl-2,3-dihydro-1H-inden-2-yl)-5-methyl-1H-pyrrole-2-sulfonamide], `Cc1[nH]c(S(=O)(=O)N[C@@H]2Cc3cc(F)c(Cl)cc3C2)cc1C(=O)N1CC(C)(O)C1` [Compound 95, (R)-N-(5-chloro-6-fluoro-2,3-dihydro-1H-inden-2-yl)-4-(3-hydroxy-3-methylazetidine-1-carbonyl)-5-methyl-1H-pyrrole-2-sulfonamide] is 1.6-fold higher in AC1.4: 0.6173 µM for the first, 0.9577 µM for the second.

`Cc1cc(S(=O)(=O)N[C@@H]2COc3cc(F)c(Cl)cc3[C@@H]2O)cc(N2CC(C#N)C2)n1` [Compound 85, N-((3R,4S)-6-chloro-7-fluoro-4-hydroxychroman-3-yl)-2-(3-cyanoazetidin-1-yl)-6-methylpyridine-4-sulfonamide] and `Cc1cc(S(=O)(=O)N[C@@H]2COc3cc(F)c(Cl)cc3[C@@H]2O)cc(N2CC[C@@H](C#N)C2)n1` [Compound 91, N-((3R,4S)-6-chloro-7-fluoro-4-hydroxychroman-3-yl)-2-((R)-3-cyanopyrrolidin-1-yl)-6-methylpyridine-4-sulfonamide] are within 1.5-fold of each other in AC1.4: 1.3618 µM for the first, 1.417 µM for the second.

Compared with `Cc1cc(S(=O)(=O)N[C@@H]2COc3cc(F)c(Cl)cc3[C@@H]2O)cc(N2CC(O)C2)n1` [Compound 86, N-((3R,4S)-6-chloro-7-fluoro-4-hydroxychroman-3-yl)-2-(3-hydroxyazetidin-1-yl)-6-methylpyridine-4-sulfonamide], `Cc1cc(S(=O)(=O)N[C@@H]2COc3cc(F)c(Cl)cc3[C@@H]2O)cc(N2CC(C(F)F)C2)n1` [Compound 90] is 2.5-fold lower in AC1.4: 13.53 µM for the first, 5.312 µM for the second.

First: Cc1cc(S(=O)(=O)N[C@@H]2COc3cc(F)c(Cl)cc3[C@@H]2O)cc(N2CC(C)(C)C2)n1 [Compound 87, N-((3R,4S)-6-chloro-7-fluoro-4-hydroxychroman-3-yl)-2-(3,3-dimethylazetidin-1-yl)-6-methylpyridine-4-sulfonamide]
Second: Cc1cc(S(=O)(=O)N[C@@H]2COc3cc(F)c(Cl)cc3[C@@H]2O)cc(N2CC(OC(F)F)C2)n1 [Compound 88, N-((3R,4S)-6-chloro-7-fluoro-4-hydroxychroman-3-yl)-2-(3-(difluoromethoxy)azetidin-1-yl)-6-methylpyridine-4-sulfonamide]
The AC1.4 of the first is 1.7-fold higher: 3.783 µM for the first, 2.209 µM for the second.

Compared with `Cc1[nH]c(S(=O)(=O)N[C@@H]2Cc3cc(F)c(Cl)cc3C2)cc1C(=O)N1CC(C(F)(F)F)C1` [Compound 93, (R)-N-(5-chloro-6-fluoro-2,3-dihydro-1H-inden-2-yl)-5-methyl-4-(3-(trifluoromethyl)azetidine-1-carbonyl)-1H-pyrrole-2-sulfonamide], `Cc1[nH]c(S(=O)(=O)N[C@@H]2Cc3cc(F)c(Cl)cc3C2)cc1C(=O)N1CC(OC(F)(F)F)C1` [Compound 94, (R)-N-(5-chloro-6-fluoro-2,3-dihydro-1H-inden-2-yl)-5-methyl-4-(3-(trifluoromethoxy)azetidine-1-carbonyl)-1H-pyrrole-2-sulfonamide] is 4.2-fold higher in AC1.4: 0.1626 µM for the first, 0.6847 µM for the second.

Compared with `Cc1[nH]c(S(=O)(=O)N[C@@H]2Cc3cc(F)c(Cl)cc3C2)cc1C(=O)N1CC2(COC2)C1` [Compound 96, (R)-N-(5-chloro-6-fluoro-2,3-dihydro-1H-inden-2-yl)-5-methyl-4-(2-oxa-6-azaspiro[3.3]heptane-6-carbonyl)-1H-pyrrole-2-sulfonamide], `Cc1[nH]c(S(=O)(=O)N[C@@H]2Cc3cc(F)c(Cl)cc3C2)cc1C(=O)N1CC2(C1)CC(F)(F)C2` [Compound 97, (R)-N-(5-chloro-6-fluoro-2,3-dihydro-1H-inden-2-yl)-4-(6,6-difluoro-2-azaspiro[3.3]heptane-2-carbonyl)-5-methyl-1H-pyrrole-2-sulfonamide] is 5.4-fold lower in AC1.4: 1.218 µM for the first, 0.2269 µM for the second.

First: [2H]C([2H])([2H])c1[nH]c(S(=O)(=O)N[C@@H]2Cc3cc(F)c(Cl)cc3C2)cc1C(=O)N1CC(OC(F)(F)F)C1 [Compound 98, (R)-N-(5-chloro-6-fluoro-2,3-dihydro-1H-inden-2-yl)-5-(methyl-d3)-4-(3-(trifluoromethoxy)azetidine-l-carbonyl)-1H-pyrrole-2-sulfonamide]
Second: CNc1cc2c(cc1S(=O)(=O)N[C@H]1C[C@H](Nc3ccccc3)C1)c(=O)[nH]c(=O)n2C [Compound 100, 1-Methyl-7-(methylamino)-2,4-dioxo-N-((1r,3r)-3-(phenylamino)cyclobutyl)-1,2,3,4-tetrahydroquinazoline-6-sulfonamide]
The AC1.4 of the first is 8.4-fold lower: 0.6667 µM for the first, 5.571 µM for the second.
